Measured values: patent US9963442B2, “Pyridones as herbicides” (E I DU PONT DE NEMOURS AND COMPANY, priority 2014, dated 2018)

Experiments:
Format in all cases: in vivo
[1] = tested on: Italian ryegrass (Lolium multiflorum); assay: Test C preemergence; conditions: scale 0 to 100, 0 is no effect, 100 is complete control
Source text: (§1) Seeds of plant species selected from blackgrass (Alopecurus myosuroides), Italian ryegrass (Lolium multiflorum), winter wheat (Triticum aestivum), galium (catchweed bedstraw, Galium aparine), corn (Zea mays), large (Lg) crabgrass (Digitaria sanguinalis), giant foxtail (Setaria faberii), johnsongrass (Sorghum halepense), lambsquarters (Chenopodium album), morningglory (Ipomoea coccinea), yellow nutsedge (Cyperus esculentus), pigweed (Amaranthus retroflexus), ragweed (common ragweed, Ambrosia elatior), soybean (Glycine max), barnyardgrass (Echinochloa crus-galli), oilseed rape (Brassica napus), waterhemp (common waterhemp, Amaranthus rudis), and velvetleaf (Abutilon theophrasti) were planted into a blend of loam soil and sand and treated preemergence with test chemicals formulated in a non-phytotoxic solvent mixture which included a surfactant. At the same time, plants selected from these crop and weed species and also chickweed (common chickweed, Stellaria media), kochia (Kochia scoparia), and wild oat (Avena fatua), were planted in pots containing Sunshine Redi-Earth® planting medium comprising spaghnum peat moss, vermiculite, starter nutrients and dolomitic limestone and treated with postemergence applications of test chemicals formulated in the same manner. Plants ranged in height from 2 to 18 cm (1- to 4-leaf stage) for postemergence treatments. Treated plants and controls were maintained in a greenhouse for 13 to 15 days, after which time all species were compared to controls and visually evaluated. Plant response ratings, summarized in Table C, are based on a scale of 0 to 100 where 0 is no effect and 100 is complete control. A dash (-) response means no test result.

[2] = tested on: velvetleaf (Abutilon theophrasti); assay: Test C preemergence; conditions: scale 0 to 100, 0 is no effect, 100 is complete control
Source text: as §1

[3] = tested on: large (Lg) crabgrass (Digitaria sanguinalis); assay: Test C preemergence; conditions: scale 0 to 100, 0 is no effect, 100 is complete control
Source text: as §1

[4] = tested on: galium (catchweed bedstraw, Galium aparine); assay: Test C preemergence; conditions: scale 0 to 100, 0 is no effect, 100 is complete control
Source text: as §1

[5] = tested on: giant foxtail (Setaria faberii); assay: Test C preemergence; conditions: scale 0 to 100, 0 is no effect, 100 is complete control
Source text: as §1

[6] = tested on: ducksalad (Heteranthera limosa); assay: Test B flooded paddy test; design: key: 0 = no effect, 100 = complete control; conditions: Flood, 250 g ai/ha applied to paddy water at 2-leaf stage; visually evaluated after 13 to 15 days; scale 0 (no effect) to 100 (complete control)
Outline: (§2)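 2-leaf plants; flood 3 cm over soil; compound into paddy water; depth held. Greenhouse 13–15 d. Visual rating vs controls, 0 (no effect) to 100 (complete control); dash = not tested.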

[7] = tested on: barnyardgrass (Echinochloa crus-galli); assay: Test B flooded paddy test; design: key: 0 = no effect, 100 = complete control; conditions: Flood, 250 g ai/ha applied to paddy water at 2-leaf stage; visually evaluated after 13 to 15 days; scale 0 (no effect) to 100 (complete control)
Outline: as §2

[8] = tested on: sedge, umbrella (small-flower umbrella sedge, Cyperus difformis); assay: Test B flooded paddy test; design: key: 0 = no effect, 100 = complete control; conditions: Flood, 250 g ai/ha applied to paddy water at 2-leaf stage; visually evaluated after 13 to 15 days; scale 0 (no effect) to 100 (complete control)
Outline: as §2

[9] = tested on: rice (Oryza sativa); assay: Test B flooded paddy test; design: key: 0 = no effect, 100 = complete control; conditions: Flood, 250 g ai/ha applied to paddy water at 2-leaf stage; visually evaluated after 13 to 15 days; scale 0 (no effect) to 100 (complete control)
Outline: as §2

[10] = tested on: ragweed (common ragweed, Ambrosia elatior); assay: Test A postemergence application; conditions: approx. 10 days
Outline: (§3)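 Visual injury score, 0–100 scale (100 = complete control), versus untreated plants after ~10 days greenhouse. Pre: directed soil spray on seeded loam/sand. Post: 2–10 cm plants, 1–2 leaves. Solvent/surfactant formulation.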

[11] = tested on: Italian ryegrass (Lolium multiflorum); assay: Test A postemergence application; conditions: approx. 10 days
Outline: as §3

[12] = tested on: corn (Zea mays); assay: Test A postemergence application; conditions: approx. 10 days
Outline: as §3

[13] = tested on: barnyardgrass (Echinochloa crus-galli); assay: Test A postemergence application; conditions: approx. 10 days
Outline: as §3

[14] = tested on: wheat (Triticum aestivum); assay: Test A postemergence application; conditions: approx. 10 days
Outline: as §3

[15] = tested on: pigweed (Amaranthus retroflexus); assay: Test A postemergence application; conditions: approx. 10 days
Outline: as §3

[16] = tested on: galium (catchweed bedstraw, Galium aparine); assay: Test A postemergence application; conditions: approx. 10 days
Outline: as §3

[17] = tested on: blackgrass (Alopecurus myosuroides); assay: Test A postemergence application; conditions: approx. 10 days
Outline: as §3

[18] = tested on: kochia (Kochia scoparia); assay: Test A postemergence application; conditions: approx. 10 days
Outline: as §3

[19] = tested on: giant foxtail (Setaria faberii); assay: Test A postemergence application; conditions: approx. 10 days
Outline: as §3

## O=c1cccc(Oc2ncc(Cl)cn2)n1-c1ccc(C(F)(F)F)cn1 [Compound 7]
[1]; 16 g ai/ha
  Plant response rating, Ryegrass, Italian: 0
[1]; 31 g ai/ha
  Plant response rating, Ryegrass, Italian: 0
[1]; 62 g ai/ha
  Plant response rating, Ryegrass, Italian: 10
[1]; 125 g ai/ha
  Plant response rating, Ryegrass, Italian: 30
[2]; 16 g ai/ha
  Plant response rating, Velvetleaf: 5
[2]; 31 g ai/ha
  Plant response rating, Velvetleaf: 10
[2]; 62 g ai/ha
  Plant response rating, Velvetleaf: 35
[2]; 125 g ai/ha
  Plant response rating, Velvetleaf: 55
[3]; 16 g ai/ha
  Plant response rating, Crabgrass, Large: 5
[3]; 31 g ai/ha
  Plant response rating, Crabgrass, Large: 60
[3]; 62 g ai/ha
  Plant response rating, Crabgrass, Large: 95
[3]; 125 g ai/ha
  Plant response rating, Crabgrass, Large: 100
[4]; 16 g ai/ha
  Plant response rating, Galium: 0
[4]; 31 g ai/ha
  Plant response rating, Galium: 50
[4]; 62 g ai/ha
  Plant response rating, Galium: 98
[4]; 125 g ai/ha
  Plant response rating, Galium: 100
[5]; 16 g ai/ha
  Plant response rating, Foxtail, Giant: 25
[5]; 31 g ai/ha
  Plant response rating, Foxtail, Giant: 60
[5]; 62 g ai/ha
  Plant response rating, Foxtail, Giant: 85
[5]; 125 g ai/ha
  Plant response rating, Foxtail, Giant: 98
[6]
  Plant response rating, Ducksalad: 100
[7]
  Plant response rating, Barnyardgrass: 0
[8]
  Plant response rating, Sedge, Umbrella: 90
[9]
  Plant response rating, Rice: 0
[10]; 31 g ai/ha
  Plant response rating (0 to 100 scale, 0 no effect, 100 complete control), Ragweed: 30
[10]; 125 g ai/ha
  Plant response rating (0 to 100 scale, 0 no effect, 100 complete control), Ragweed: 60
[11]; 31 g ai/ha
  Plant response rating (0 to 100 scale, 0 no effect, 100 complete control), Ryegrass, Italian: 0
[11]; 125 g ai/ha
  Plant response rating (0 to 100 scale, 0 no effect, 100 complete control), Ryegrass, Italian: 20
[12]; 31 g ai/ha
  Plant response rating (0 to 100 scale, 0 no effect, 100 complete control), Corn: 10
[12]; 125 g ai/ha
  Plant response rating (0 to 100 scale, 0 no effect, 100 complete control), Corn: 20
[13]; 31 g ai/ha
  Plant response rating (0 to 100 scale, 0 no effect, 100 complete control), Barnyardgrass: 20
[13]; 125 g ai/ha
  Plant response rating (0 to 100 scale, 0 no effect, 100 complete control), Barnyardgrass: 50
[14]; 31 g ai/ha
  Plant response rating (0 to 100 scale, 0 no effect, 100 complete control), Wheat: 0
[14]; 125 g ai/ha
  Plant response rating (0 to 100 scale, 0 no effect, 100 complete control), Wheat: 20
[15]; 31 g ai/ha
  Plant response rating (0 to 100 scale, 0 no effect, 100 complete control), Pigweed: 70
[15]; 125 g ai/ha
  Plant response rating (0 to 100 scale, 0 no effect, 100 complete control), Pigweed: 90
[16]; 31 g ai/ha
  Plant response rating (0 to 100 scale, 0 no effect, 100 complete control), Galium: 50
[16]; 125 g ai/ha
  Plant response rating (0 to 100 scale, 0 no effect, 100 complete control), Galium: 90
[17]; 31 g ai/ha
  Plant response rating (0 to 100 scale, 0 no effect, 100 complete control), Blackgrass: 10
[17]; 125 g ai/ha
  Plant response rating (0 to 100 scale, 0 no effect, 100 complete control), Blackgrass: 30
[18]; 31 g ai/ha
  Plant response rating (0 to 100 scale, 0 no effect, 100 complete control), Kochia: 80
[18]; 125 g ai/ha
  Plant response rating (0 to 100 scale, 0 no effect, 100 complete control), Kochia: 90
[19]; 31 g ai/ha
  Plant response rating (0 to 100 scale, 0 no effect, 100 complete control), Foxtail, Giant: 20
[19]; 125 g ai/ha
  Plant response rating (0 to 100 scale, 0 no effect, 100 complete control), Foxtail, Giant: 50

## O=c1cccc(Oc2ncc(Cl)cn2)n1-c1ccc(C(F)(F)F)cc1 [Compound 10]
[1]; 16 g ai/ha
  Plant response rating, Ryegrass, Italian: 0
[1]; 31 g ai/ha
  Plant response rating, Ryegrass, Italian: 10
[1]; 62 g ai/ha
  Plant response rating, Ryegrass, Italian: 90
[1]; 125 g ai/ha
  Plant response rating, Ryegrass, Italian: 85
[2]; 16 g ai/ha
  Plant response rating, Velvetleaf: 0
[2]; 31 g ai/ha
  Plant response rating, Velvetleaf: 20
[2]; 62 g ai/ha
  Plant response rating, Velvetleaf: 40
[2]; 125 g ai/ha
  Plant response rating, Velvetleaf: 55
[3]; 16 g ai/ha
  Plant response rating, Crabgrass, Large: 75
[3]; 31 g ai/ha
  Plant response rating, Crabgrass, Large: 98
[3]; 62 g ai/ha
  Plant response rating, Crabgrass, Large: 100
[3]; 125 g ai/ha
  Plant response rating, Crabgrass, Large: 100
[4]; 16 g ai/ha
  Plant response rating, Galium: 0
[4]; 31 g ai/ha
  Plant response rating, Galium: 80
[4]; 62 g ai/ha
  Plant response rating, Galium: 60
[4]; 125 g ai/ha
  Plant response rating, Galium: 98
[5]; 16 g ai/ha
  Plant response rating, Foxtail, Giant: 55
[5]; 31 g ai/ha
  Plant response rating, Foxtail, Giant: 90
[5]; 62 g ai/ha
  Plant response rating, Foxtail, Giant: 100
[5]; 125 g ai/ha
  Plant response rating, Foxtail, Giant: 100
[6]
  Plant response rating, Ducksalad: 65
[7]
  Plant response rating, Barnyardgrass: 30
[8]
  Plant response rating, Sedge, Umbrella: 90
[9]
  Plant response rating, Rice: 20
[10]; 31 g ai/ha
  Plant response rating (0 to 100 scale, 0 no effect, 100 complete control), Ragweed: 10
[10]; 125 g ai/ha
  Plant response rating (0 to 100 scale, 0 no effect, 100 complete control), Ragweed: 20
[11]; 31 g ai/ha
  Plant response rating (0 to 100 scale, 0 no effect, 100 complete control), Ryegrass, Italian: 0
[11]; 125 g ai/ha
  Plant response rating (0 to 100 scale, 0 no effect, 100 complete control), Ryegrass, Italian: 60
[12]; 31 g ai/ha
  Plant response rating (0 to 100 scale, 0 no effect, 100 complete control), Corn: 20
[12]; 125 g ai/ha
  Plant response rating (0 to 100 scale, 0 no effect, 100 complete control), Corn: 30
[13]; 31 g ai/ha
  Plant response rating (0 to 100 scale, 0 no effect, 100 complete control), Barnyardgrass: 40
[13]; 125 g ai/ha
  Plant response rating (0 to 100 scale, 0 no effect, 100 complete control), Barnyardgrass: 90
[14]; 31 g ai/ha
  Plant response rating (0 to 100 scale, 0 no effect, 100 complete control), Wheat: 0
[14]; 125 g ai/ha
  Plant response rating (0 to 100 scale, 0 no effect, 100 complete control), Wheat: 10
[15]; 31 g ai/ha
  Plant response rating (0 to 100 scale, 0 no effect, 100 complete control), Pigweed: 70
[15]; 125 g ai/ha
  Plant response rating (0 to 100 scale, 0 no effect, 100 complete control), Pigweed: 90
[16]; 31 g ai/ha
  Plant response rating (0 to 100 scale, 0 no effect, 100 complete control), Galium: 30
[16]; 125 g ai/ha
  Plant response rating (0 to 100 scale, 0 no effect, 100 complete control), Galium: 80
[17]; 31 g ai/ha
  Plant response rating (0 to 100 scale, 0 no effect, 100 complete control), Blackgrass: 30
[17]; 125 g ai/ha
  Plant response rating (0 to 100 scale, 0 no effect, 100 complete control), Blackgrass: 50
[18]; 31 g ai/ha
  Plant response rating (0 to 100 scale, 0 no effect, 100 complete control), Kochia: 80
[18]; 125 g ai/ha
  Plant response rating (0 to 100 scale, 0 no effect, 100 complete control), Kochia: 90
[19]; 31 g ai/ha
  Plant response rating (0 to 100 scale, 0 no effect, 100 complete control), Foxtail, Giant: 50
[19]; 125 g ai/ha
  Plant response rating (0 to 100 scale, 0 no effect, 100 complete control), Foxtail, Giant: 90
